Literature values as cited in publication PMC7238799 (Pulmonary Circulation, 2020).
Like-named read-outs stand apart in the source and are kept apart here.

Experiments:
[1] = cited from earlier work; for Half-life / Steady-state PTR: oral
[2] = system: prostacyclin (IP) receptor; conditions: cited from earlier work
[3] = system: healthy male subjects; conditions: from 400 µg BID up to 1600–1800 µg BID; cited from earlier work
[4] = BID oral administration of selexipag

CC(C)N(CCCCOCC(=O)O)c1cnc(-c2ccccc2)c(-c2ccccc2)n1 [ACT-333679]
Accumulation at steady-state [1, 4]: 1.02–1.27 fold | Mean steady-state PTR [1, 4]: 5.6–6.5 | Effective half-life (EHL) ([1]; active metabolite of selexipag): 3 to 4 h | Terminal elimination half-life ([1]; active metabolite of selexipag): 6.2 to 13.5 h | Maximal cAMP stimulation (efficacy percentage relative to iloprost) [2]: 48% | Type of IP receptor agonism [2]: weak partial agonist

CC#CCC(C)[C@H](O)/C=C/[C@@H]1[C@H]2c3cccc(CCCC(=O)O)c3O[C@H]2C[C@H]1O (mixture of isomers) [beraprost]
Half-life ([1]; administered four times daily): 0.75 h

CCCCC[C@H](O)CC[C@@H]1[C@H]2Cc3cccc(OCC(=O)O)c3C[C@H]2C[C@H]1O [treprostinil]
Steady-state PTR ([1]; BID dosing): 7.0 | Steady-state PTR ([1]; TID dosing): 2.5 | Half-life ([1]; administered two or three times daily): 3 to 4 h

CC#CCC(C)[C@H](O)/C=C/[C@@H]1[C@H]2C/C(=C/CCCC(=O)O)C[C@H]2C[C@H]1O (stereo partly shown) [iloprost]
Maximal cAMP stimulation (efficacy percentage relative to iloprost) [2]: 100% | Type of IP receptor agonism [2]: full agonist

CC(C)N(CCCCOCC(=O)NS(C)(=O)=O)c1cnc(-c2ccccc2)c(-c2ccccc2)n1 [selexipag]
Treated subjects achieving full dose escalation [3]: 67–81%
